The values that follow come from PubChem BioAssay AID179 (DTP/NCI, 2004).

This test concerns CEM cells HIV-1 protection, formazan growth assay. The experiment in a line: NCI AIDS Antiviral Assay. Conditions: for IC50: measured here: growth of uninfected CEM cells. A digest of the protocol:
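Protection of CEM cells against HIV-1 was scored from cell growth (soluble formazan) across five concentrations, with parallel uninfected cells. Lack of protection may reflect toxicity.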

Broadly, the EC50 is the concentration that produces a half-maximal response. One may read the IC50 as the point on the concentration scale where inhibition reaches its midpoint. Higher therefore signals weaker potency.

Each structure is given as a SMILES string. “And” between values parts separate entries of the source, which are not always exact repeats. Equal values may be shown once. The source made the active and inactive calls.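 Rule for the calls: active = compounds giving half or more protection of infected cells from virus-caused growth loss, again on retest; inactive = the rest.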 Where a SMILES comes first, the peptide text is derived from it.

For `CC(=O)NC(CS)C(=O)NC(CO)C(=O)NC(CO)C(=O)NC(Cc1c[nH]c2ccccc12)C(=O)N1CCCC1C(=O)NC(CO)C(=O)NC(Cc1c[nH]c2ccccc12)C(=O)NC(Cc1c[nH]cn1)C(=O)NC(CO)C(=O)NC(Cc1c[nH]c2ccccc12)C(=O)NCC(=O)NCC(=O)NC(C)C(=O)NC(CCC(N)=O)C(=O)NC(CCCCN)C(=O)NC(C)C(=O)NC(CCCNC(=N)N)C(=O)NC(CCCCN)C(N)=O` (centres undefined) (Ac-CSSWPSWHSWGGAQKARK-NH2; configuration not given here), the EC50 is over 20 µM and the IC50 was determined as 17.4 µM. Taken in the same sequence, the figures for `CCCCOC(=Nc1ccccc1)N(c1ccccc1)c1ccccc1` were over 200 µM and 36.3 µM. Consider `CCNC(=O)Sc1ccccc1C(=O)NCCC(N)=O`, for which the concentration giving a half-maximal response (EC50) was determined as 1.1 µM and the IC50 was 102 µM.

Turning to `CCN(CC)c1c(N(CC)CC)c(=O)c1=O`, the EC50 is over 200 µM and the IC50 amounted to 6.03 µM. Take `CC(O)(CCCCCl)c1nc2ccccc2s1` (centres undefined): the EC50 is over 200 µM and the IC50 was determined as 60.3 µM. As for `O=c1ccn(/C=C(\c2ccccc2)S(=O)Cc2ccccc2)c(=S)[nH]1` (centres undefined), the result was inactive.

Consider `O=c1c2ccccc2oc2nccnc12`, for which the result was inactive. As to `COc1cc2c(cc1OC)C(N(C)C)C(c1ccccc1)=C2Cl` (centres undefined), the EC50 was over 55 µM and the IC50 was determined as 33.1 µM. Turning to `COc1cc(/C=C/C(=N\NS(=O)(=O)c2ccc(C)cc2)c2sc(NNC(C)=O)nc2C)ccc1O`, the EC50 is over 46.8 µM and the IC50 is over 46.8 µM. As for `CC(=O)O[C@H]1CC[C@@]2(C)C(=CC[C@@H]3C2CC[C@@]2(C)C3CC[C@@H]2c2ncc(-c3ccccc3)s2)C1` (some centres undefined), the EC50 is over 52.5 µM and the IC50 was over 52.5 µM. Turning to `CCCCOC(=O)C1CN2C=CC=NC2=NC1(C(F)(F)F)C(F)(F)F` (centres undefined), the result was inactive.

In the case of `COc1cc2c(cc1OC)C(Cc1ccc(OC)c(Oc3ccc(C[C@@H]4c5cc(OC)c(OC)cc5CCN4C)cc3)c1)N(C)CC2` (some centres undefined), the result was inactive. Take `CN/N=C(/CC(=O)c1sc(NNC(C)=O)nc1C)C(=O)Nc1ccc(OC)cc1OC`: the EC50 was over 79.4 µM and the IC50 is over 79.4 µM.

Take `O=C(O)CCCCCCCCCCCF`: the EC50 is over 200 µM and the IC50 was 186 µM. On to `CC(C)CN1CN(c2ccccc2)C2(CCN(CC(C)(c3ccc(F)cc3)C3OCCO3)CC2)C1=O` (centres undefined), for which the EC50 is over 100 µM and the 50% inhibitory concentration (IC50) worked out at 12.6 µM.

On to `COC(=O)/C=C/C(=N/Nc1ccccc1)c1ccccc1`, for which the EC50 was over 200 µM and the IC50 came to 28.8 µM. Consider `C(=C/P(c1ccccc1)c1ccccc1)/P(c1ccccc1)c1ccccc1.C(=CP(c1ccccc1)c1ccccc1)P(c1ccccc1)c1ccccc1.[Pt]`, for which the EC50 is over 3.63 µM and the IC50 came out at 2.63 µM. On to `CC(=O)C1C(=O)C(=O)N(c2ccc(Cl)c(Cl)c2)C1=O` (centres undefined), for which the EC50 is over 200 µM and the IC50 is 129 µM. As for `Cn1c(=O)c(Cc2c(O)c3ccccc3n(C)c2=O)c(O)c2ccccc21`, the EC50 was over 7.24 µM and the IC50 was over 7.24 µM. Regarding `CCOC1=NC(C(F)(F)F)(C(F)(F)F)N=C(/N=C(/N)N(C)C(C(C)C)P(=O)(OC(C)C)OC(C)C)O1` (centres undefined), the EC50 was over 200 µM and the IC50 was found to be 31.6 µM. For the molecule `O=Cc1c2c(cc3c1CC1(C3)Cc3cc4c(c(C=O)c3C1)CCCC4)CCCC2`, the EC50 was over 200 µM and the IC50 was 123 µM. Consider `CCOC(=O)C(C)Sc1nnc(COc2ccccc2OC)n1-c1ccccc1` (centres undefined), for which the EC50 is over 200 µM and the 50% inhibitory concentration (IC50) worked out at 162 µM. As to `NC(=O)CCC(NC(=O)c1ccccc1SC(=O)CCCC[n+]1ccccc1)C(N)=O` (centres undefined), the EC50 was 20.4 µM and the IC50 is over 200 µM.

Turning to `COC(=O)CNC(=O)c1cc(C)cc2c1Oc1c(cc(C)cc1C(=O)NCC(=O)OC)S2`, the EC50 was over 200 µM and the IC50 is over 200 µM. Take `CC(=O)NC(CCC(=O)c1ccc(Cl)cc1)C(=O)O` (centres undefined): the EC50 was over 200 µM and the IC50 was over 200 µM. As to `CN1CCOC(c2ccccc2)O1` (centres undefined), the EC50 was over 251 µM and the 50% inhibitory concentration (IC50) is over 251 µM. Regarding `CC(=O)Nc1cccc(C[P+](c2ccccc2)(c2ccccc2)c2ccccc2)c1`, the EC50 was over 200 µM and the IC50 is 91.2 µM.

Consider `CC(=O)C(N=Nc1ccc(S(=O)(=O)NC2ONC(C)C2C)cc1)C(=O)Nc1ccc(Cl)cc1` (centres undefined), for which the EC50 was over 200 µM and the IC50 was 36.3 µM.

In the case of `COc1ccc2c(c1)C(=O)Cc1ccccc1CC2`, the EC50 was over 39.8 µM and the IC50 was over 39.8 µM. Take `O=C1C[C@H]2[C@@H](O1)[C@@H](O)CN1C(=O)c3ccccc3[C@H]21`: the EC50 was over 200 µM and the IC50 is over 200 µM. With `Cc1ccc2nccc(/C=C/c3ccc(N(C)C)cc3)c2c1`, the EC50 is over 13.2 µM and the IC50 came to 2.45 µM. As to `O=C(Cc1nc2ccccc2s1)C(=O)Nc1ccc(Cl)cc1`, the result was inactive. As to `Nc1nc(=O)n(C2CCC(CO)O2)cc1F` (centres undefined), the EC50 was 0.151 µM and the IC50 stood at 32.4 µM. Taken in the same sequence, the figures for `O=C(NNC(=O)c1ccco1)c1ccco1` were over 200 µM and over 200 µM.

For `CCC(C)C(NC(=O)C(N)CCC(=O)O)C(=O)NC(CCCCN)C(=O)NCC(=O)NC(C(=O)NC(C(=O)NC(CC(=O)O)C(=O)NC(CC(C)C)C(=O)NCC(=O)NC(CCCCN)C(=O)O)C(C)O)C(C)O` (centres undefined) (H-EIKGTTDLGK-OH; configuration not given here), the outcome was inactive.

For `Clc1ccccc1C1=NN(c2ccccc2)C2c3ccccc3OCC12` (centres undefined), the EC50 is over 72.4 µM and the IC50 was over 72.4 µM. Take `COn1oc(=O)c2ccccc21`: the EC50 is over 200 µM and the IC50 is over 200 µM. On to `O=C1C(=O)N(c2ccc(Cl)cc2)C(=O)C(=Nc2cccc3c(=O)[nH][nH]c(=O)c23)C1c1nc2ccccc2o1` (centres undefined), for which the result was inactive. As to `CC(=O)Nc1nnc(S(C)(=O)=O)s1`, the EC50 is over 1120 µM and the IC50 came out at 851 µM. Consider `Nc1nc(=S)c2c(ncn2CCO)[nH]1`, for which the EC50 is over 324 µM and the IC50 stood at 126 µM. Regarding `CCCCn1c(C)c(C)c2c1NN=C(C#N)S2(=O)=O`, the EC50 was over 200 µM and the IC50 is over 200 µM. As to `CC[n+]1c(-c2ccccc2)c2cc(N)ccc2c2ccc(N)cc21`, the EC50 was over 708 µM; the IC50 was 0.794 µM and 0.525 µM. For the molecule `O=C1CCCC/C1=C1\C(=O)Nc2cc(F)ccc21`, the EC50 was over 1020 µM and the IC50 was determined as 107 µM.

`COC(=O)CN(CC1O[C@@H]2OC(C)(C)O[C@@H]2C1NC(C)=O)C(=O)OCc1ccccc1` (some centres undefined): the EC50 is over 200 µM and the IC50 was over 200 µM. As for `CC1=C(C(=O)Nc2cc(F)c(F)cc2F)C(c2ccc(N(C)C)cc2)C(C(=O)Nc2cc(F)c(F)cc2F)=C(C)N1`, the EC50 is over 23.4 µM and the IC50 is over 23.4 µM. Turning to `CNc1nc(N)[nH]c(=O)c1N=O`, the result was inactive. Turning to `COc1cccc(N2C(=O)c3c(c4[nH]c5ccccc5c4c4ccc(C(C)(C)C)cc34)C2=O)c1`, the EC50 was over 11.5 µM and the IC50 is over 11.5 µM. Regarding `Cc1ccccc1C1=C(C(=O)Nc2ccc(Cl)c(Cl)c2)NC(=S)NC1N` (centres undefined), the EC50 was over 617 µM and the IC50 is over 617 µM. Turning to `COc1ccc(COCC[C@H](C)OC2OC(CO)C(O)C(O)C2O)cc1` (some centres undefined), the EC50 was over 200 µM and the IC50 was over 200 µM. On to `c1ccc(CN(Cc2ccccn2)Cn2cccn2)nc1`, for which the result was inactive.

On to `C[C@]12CCCCC1(O)C[C@H](C(=O)O)CC2` (some centres undefined), for which the outcome was inactive.

In the case of `O=C(CCCC(=O)N/N=C/c1ccc(O)c(O)c1)N/N=C\c1ccc(O)c(O)c1`, the EC50 is over 200 µM and the IC50 stood at 29.5 µM. Consider `CCCCNC(=S)Nc1nc(C(=O)NNC(=S)Nc2ccccc2)cs1`, for which the EC50 is 58.9 µM and the IC50 was over 200 µM. Consider `COc1cccc(C=C2N=C(c3ccccc3)N(n3c(-c4ccccc4)nc4ccccc4c3=O)C2=O)c1`, for which the EC50 was over 200 µM and the IC50 was determined as 37.2 µM. As to `CCc1cc2c(c3c1CCC3=O)CC1(Cc3ccc(C)cc3C1)C2` (centres undefined), the EC50 was over 200 µM and the IC50 was 135 µM.

Regarding `CCCCCCCCCCCCCCCCCCNC(=O)c1ccccc1[Se][Se]c1ccccc1C(=O)NCCCCCCCCCCCCCCCCCC`, the EC50 is over 0.794 µM and the half-inhibitory concentration (IC50) was over 0.794 µM. For the molecule `COc1cc2c(cc1OC)C1c3ccccc3CCN1CCC2` (centres undefined), the EC50 is over 200 µM and the IC50 is over 200 µM.

For `Cc1ccc(S(=O)(=O)N2CCN(CCN(C)CCN3CCN(S(=O)(=O)c4ccc(C)cc4)CC3)CC2)cc1`, the EC50 is over 100 µM and the IC50 amounted to 46.8 µM. As to `COc1ccc(OC)c(C(Cc2ccnc3ccccc23)Cc2ccnc3ccccc23)c1`, the EC50 is over 200 µM and the IC50 amounted to 26.3 µM. Regarding `Cc1ncc([N+](=O)[O-])n1CCNC(=O)CCCCCn1ccnc1[N+](=O)[O-]`, the result was inactive.

For `c1ccc2c(c1)Sc1ccccc1S2`, the EC50 was over 200 µM and the IC50 was over 200 µM. For `CN(C)CCC(=O)c1ccccc1`, the outcome was inactive.

Regarding `COc1cc(C(C[N+](=O)[O-])SC(C)=O)ccc1OCc1ccccc1` (centres undefined), the EC50 was over 200 µM and the IC50 was 1.95 µM.

With `N#Cc1c(-c2ccc([N+](=O)[O-])cc2)c(C#N)c(=O)n(NS(=O)(=O)c2ccccc2)c1S`, the EC50 was over 200 µM and the IC50 amounted to 16.6 µM.

Turning to `CC1=CCC(=O)[C@]2(C)C(CC(=O)O)[C@]3(C)C4=C(C)C(c5ccoc5)C[C@@H]4O[C@@H]3[C@H](O)[C@@H]12` (some centres undefined), the EC50 was over 550 µM and the IC50 is over 550 µM. For the molecule `S=C(N/N=C/c1cccc2ccccc12)Nc1c(Cl)cccc1Cl`, the EC50 is over 200 µM and the IC50 was 102 µM. Taken in the same sequence, the figures for `COc1ccc(-c2cc(=O)c3c(O)cccc3o2)cc1` were over 200 µM and over 200 µM.

For the molecule `O=C(N/C(=C\c1ccc(Br)cc1)c1nc2ccccc2[nH]1)c1ccccc1`, the EC50 is over 61.7 µM and the IC50 turned out to be 33.9 µM.
